Results: ChEMBL document CHEMBL4130359, “Indazole-based ligands for estrogen-related receptor α as potential anti-diabetic agents” (Eur J Med Chem, 2017)

Experiments:
[1] = target: T1, Steroid hormone receptor ERR1 (Homo sapiens, UniProt P11474); assay: Antagonist activity at His6-tagged ERRalpha LBD (unknown origin) assessed as inhibition of GST-tagged SRC-2 co-activator peptide recruitment after 18 hrs by TR-FRET assay
T1 sequence (P11474 whole entry): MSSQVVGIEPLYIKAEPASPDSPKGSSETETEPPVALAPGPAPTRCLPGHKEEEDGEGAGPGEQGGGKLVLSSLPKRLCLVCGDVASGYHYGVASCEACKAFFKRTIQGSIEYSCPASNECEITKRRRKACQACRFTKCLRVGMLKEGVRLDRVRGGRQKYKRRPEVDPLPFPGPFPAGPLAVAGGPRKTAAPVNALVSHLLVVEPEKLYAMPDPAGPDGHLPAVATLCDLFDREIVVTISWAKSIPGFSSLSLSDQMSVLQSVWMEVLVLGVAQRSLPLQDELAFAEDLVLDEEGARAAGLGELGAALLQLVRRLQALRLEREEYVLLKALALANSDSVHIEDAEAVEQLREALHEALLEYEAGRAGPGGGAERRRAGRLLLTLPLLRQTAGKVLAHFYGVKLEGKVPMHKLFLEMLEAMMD

Rattus norvegicus [2] = assay: Decrease in fed plasma insulin level in Zucker rat sub-chronic fa/fa prediabetic model assessed as change in plasma insulin level at 10 mg/kg, po qd for 4 days measured on day 5 relative to control; format: functional; design: scale not given: the % may be the effect or the level left
Rattus norvegicus [3] = assay: Decrease in fed plasma triglyceride level in Zucker rat sub-chronic fa/fa prediabetic model assessed as change in plasma triglyceride level at 10 mg/kg, po qd for 4 days measured on day 5 relative to control; format: functional; design: scale not given: the % may be the effect or the level left
[4] = target: Voltage-gated inwardly rectifying potassium channel KCNH2 (Homo sapiens, UniProt Q12809); assay: Displacement of [3H]astemizole from human ERG; details: for inhibition (INH): human
Voltage-gated inwardly rectifying potassium channel KCNH2, sequence (Q12809 whole entry): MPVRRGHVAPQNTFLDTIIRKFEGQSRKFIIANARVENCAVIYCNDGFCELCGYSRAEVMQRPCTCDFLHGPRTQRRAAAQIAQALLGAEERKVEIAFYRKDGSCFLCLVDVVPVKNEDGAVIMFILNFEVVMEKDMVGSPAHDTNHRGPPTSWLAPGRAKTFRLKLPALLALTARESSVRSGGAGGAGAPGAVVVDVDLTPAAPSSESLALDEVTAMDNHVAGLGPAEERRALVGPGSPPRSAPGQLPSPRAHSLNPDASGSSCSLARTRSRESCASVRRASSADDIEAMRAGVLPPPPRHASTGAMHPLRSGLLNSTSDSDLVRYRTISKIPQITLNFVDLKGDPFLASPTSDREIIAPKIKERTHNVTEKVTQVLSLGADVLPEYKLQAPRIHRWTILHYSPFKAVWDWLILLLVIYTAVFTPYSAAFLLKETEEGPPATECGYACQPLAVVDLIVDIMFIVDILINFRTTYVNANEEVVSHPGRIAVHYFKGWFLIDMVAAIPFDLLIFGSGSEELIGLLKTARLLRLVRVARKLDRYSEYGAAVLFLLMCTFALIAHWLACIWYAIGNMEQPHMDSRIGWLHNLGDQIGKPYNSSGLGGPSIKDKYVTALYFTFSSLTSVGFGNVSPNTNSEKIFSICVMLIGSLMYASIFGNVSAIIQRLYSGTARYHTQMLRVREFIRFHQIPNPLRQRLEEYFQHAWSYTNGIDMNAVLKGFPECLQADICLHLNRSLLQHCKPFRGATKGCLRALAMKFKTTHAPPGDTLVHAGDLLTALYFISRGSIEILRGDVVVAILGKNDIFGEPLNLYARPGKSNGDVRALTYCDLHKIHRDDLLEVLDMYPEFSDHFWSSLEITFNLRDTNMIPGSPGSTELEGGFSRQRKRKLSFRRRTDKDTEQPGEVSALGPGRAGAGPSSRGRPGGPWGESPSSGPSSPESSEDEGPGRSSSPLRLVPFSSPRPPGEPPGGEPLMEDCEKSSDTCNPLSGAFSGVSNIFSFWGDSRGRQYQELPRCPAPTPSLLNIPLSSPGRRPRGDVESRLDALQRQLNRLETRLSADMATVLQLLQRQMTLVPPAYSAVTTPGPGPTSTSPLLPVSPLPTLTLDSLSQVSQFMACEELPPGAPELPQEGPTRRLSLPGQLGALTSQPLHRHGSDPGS

Cytochrome P450 2C19 = Cytochrome P450 2C19 (Homo sapiens, UniProt P33261); assay: Inhibition of CYP2C19 (unknown origin) in microsomes; format: ADME
Cytochrome P450 2C19, sequence (P33261 whole entry): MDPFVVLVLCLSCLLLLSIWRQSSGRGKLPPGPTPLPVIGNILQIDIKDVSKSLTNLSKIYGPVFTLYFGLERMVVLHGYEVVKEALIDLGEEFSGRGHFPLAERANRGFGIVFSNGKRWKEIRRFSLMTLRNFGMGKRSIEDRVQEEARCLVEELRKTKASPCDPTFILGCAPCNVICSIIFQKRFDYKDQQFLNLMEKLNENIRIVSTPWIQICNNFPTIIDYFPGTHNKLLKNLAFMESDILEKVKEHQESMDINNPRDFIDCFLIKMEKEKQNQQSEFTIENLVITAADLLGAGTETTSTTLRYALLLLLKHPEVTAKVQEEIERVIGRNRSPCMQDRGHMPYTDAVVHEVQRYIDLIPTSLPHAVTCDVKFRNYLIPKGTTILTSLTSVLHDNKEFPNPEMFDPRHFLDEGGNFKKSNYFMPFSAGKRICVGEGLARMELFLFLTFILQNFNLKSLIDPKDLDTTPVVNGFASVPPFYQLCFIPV

Cytochrome P450 3A4 = Cytochrome P450 3A4 (Homo sapiens, UniProt P08684); assay: Inhibition of CYP3A4 (unknown origin) in microsomes; format: ADME
Cytochrome P450 3A4, sequence (P08684 whole entry): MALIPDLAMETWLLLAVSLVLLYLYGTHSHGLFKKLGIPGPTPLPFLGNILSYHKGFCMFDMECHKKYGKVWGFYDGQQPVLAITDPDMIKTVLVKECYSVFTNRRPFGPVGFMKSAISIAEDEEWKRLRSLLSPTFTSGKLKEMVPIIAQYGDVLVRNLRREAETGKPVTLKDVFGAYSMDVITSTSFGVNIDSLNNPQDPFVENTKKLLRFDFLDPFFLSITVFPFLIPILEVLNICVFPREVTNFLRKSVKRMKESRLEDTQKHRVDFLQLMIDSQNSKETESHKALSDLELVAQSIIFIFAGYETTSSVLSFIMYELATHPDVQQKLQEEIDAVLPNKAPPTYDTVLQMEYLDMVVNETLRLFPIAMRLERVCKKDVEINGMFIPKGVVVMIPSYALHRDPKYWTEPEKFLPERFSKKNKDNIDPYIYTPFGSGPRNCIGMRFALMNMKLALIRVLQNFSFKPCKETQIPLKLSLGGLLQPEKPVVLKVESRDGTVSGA

Cytochrome P450 2C9 = Cytochrome P450 2C9 (Homo sapiens, UniProt P11712); assay: Inhibition of CYP2C9 (unknown origin) in microsomes; format: ADME
Cytochrome P450 2C9, sequence (P11712 whole entry): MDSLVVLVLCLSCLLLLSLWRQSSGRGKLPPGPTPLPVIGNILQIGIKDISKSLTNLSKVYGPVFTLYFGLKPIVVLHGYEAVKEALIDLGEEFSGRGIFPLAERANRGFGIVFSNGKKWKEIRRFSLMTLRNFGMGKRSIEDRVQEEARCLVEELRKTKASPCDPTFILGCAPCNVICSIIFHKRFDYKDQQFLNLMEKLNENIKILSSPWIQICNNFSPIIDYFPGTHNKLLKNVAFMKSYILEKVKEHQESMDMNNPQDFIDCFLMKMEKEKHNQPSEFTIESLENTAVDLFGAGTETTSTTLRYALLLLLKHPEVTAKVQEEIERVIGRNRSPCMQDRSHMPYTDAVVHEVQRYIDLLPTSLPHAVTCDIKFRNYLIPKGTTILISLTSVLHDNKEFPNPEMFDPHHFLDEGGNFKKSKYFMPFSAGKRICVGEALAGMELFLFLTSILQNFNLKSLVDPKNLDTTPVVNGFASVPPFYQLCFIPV

Rattus norvegicus [5] = assay: Decrease in fed plasma glucose level in Zucker rat sub-chronic fa/fa prediabetic model at 10 mg/kg, po qd for 4 days measured on day 5 relative to control; format: functional; design: scale not given: the % may be the effect or the level left
Rattus norvegicus [6] = assay: Decrease in fed plasma free fatty acid level in Zucker rat sub-chronic fa/fa prediabetic model at 10 mg/kg, po qd for 4 days measured on day 5 relative to control; format: functional; design: scale not given: the % may be the effect or the level left
Rattus norvegicus [7] = assay: Toxicity in Zucker rat sub-chronic fa/fa prediabetic model assessed as increase in body weight at 10 mg/kg, po qd for 4 days; format: organism-based; details: in vivo, 96 h
Rattus norvegicus [8] = assay: Antidiabetic activity in Zucker rat sub-chronic fa/fa prediabetic model assessed as decrease in plasma glucose AUC (0 to 120 mins) at 10 mg/kg, po qd during 10 days study by OGTT relative to control; format: functional; design: scale not given: the % may be the effect or the level left
Rattus norvegicus [9] = assay: Toxicity in Zucker rat sub-chronic fa/fa prediabetic model assessed as increase in body weight at 10 mg/kg, po qd during 10 days study; format: organism-based; details: in vivo, 240 h
Rattus norvegicus [10] = assay: Toxicity in Zucker rat sub-chronic fa/fa prediabetic model assessed as increase in food consumption at 10 mg/kg, po qd during 10 days study; format: organism-based; details: in vivo, 240 h
Rattus norvegicus [11] = assay: Toxicity in Zucker rat sub-chronic fa/fa prediabetic model assessed as effect on liver enzymes at 10 mg/kg, po qd during 10 days study; format: organism-based; details: in vivo, 240 h
[12] = Drug uptake in Sprague-Dawley rat plasma at 10 mg/kg, po via gavage by LC-MS analysis; format: ADME, organism-based; details: in vivo
[13] = target: Steroid hormone receptor ERR2 (Homo sapiens, UniProt O95718); assay: Antagonist activity at recombinant GST-tagged human ERRbeta LBD assessed as inhibition of fluorescein-labeled coactivator peptide recruitment preincubated with enzyme followed by coactivator addition by LanthaScreen TR-FRET assay
Steroid hormone receptor ERR2, sequence (O95718 whole entry, the tested form may be a part): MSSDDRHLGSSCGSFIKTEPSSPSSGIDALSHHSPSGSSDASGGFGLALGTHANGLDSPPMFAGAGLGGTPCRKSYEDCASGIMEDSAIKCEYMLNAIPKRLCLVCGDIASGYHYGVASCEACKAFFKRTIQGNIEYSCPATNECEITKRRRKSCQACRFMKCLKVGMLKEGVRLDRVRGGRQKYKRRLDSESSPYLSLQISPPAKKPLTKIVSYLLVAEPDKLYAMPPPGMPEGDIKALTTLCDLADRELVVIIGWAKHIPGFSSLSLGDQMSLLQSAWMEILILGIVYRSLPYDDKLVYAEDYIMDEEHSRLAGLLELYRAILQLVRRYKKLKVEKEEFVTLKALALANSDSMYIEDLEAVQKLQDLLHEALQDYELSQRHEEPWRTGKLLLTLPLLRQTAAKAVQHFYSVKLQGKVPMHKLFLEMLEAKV

Row | SMILES | IC50 [1] [µM] | Activity (Rattus norvegicus [2]) [%] | Activity (Rattus norvegicus [3]) [%] | also measured
1 | O=C(O)C1CCC(N2C(=O)S/C(=C\c3ccc4c(cnn4Cc4ccc(Cl)cc4C(F)(F)F)c3)C2=O)CC1 (configuration not stated) | 0.012 | -30 | -19 | –
2 | CN1CC[C@@H](N2C(=O)S/C(=C\c3ccc4c(cnn4Cc4ccc(Cl)cc4C(F)(F)F)c3)C2=O)[C@H](O)C1 (relative stereo) | 0.023 | – | – | inhibition (INH) [4]: Active
3 | CN1CC[C@H](N2C(=O)S/C(=C\c3ccc4c(cnn4Cc4ccc(Cl)cc4C(F)(F)F)c3)C2=O)[C@H](F)C1 (relative stereo) | 0.045 | -73 | -57 | inhibition (INH) (Cytochrome P450 2C19): Not Active; inhibition (INH) (Cytochrome P450 3A4): Not Active; inhibition (INH) [4]: Not Active; inhibition (INH) (Cytochrome P450 2C9): Not Active; Activity (Rattus norvegicus [5]): -43%; Activity (Rattus norvegicus [6]): -35%; Activity (Rattus norvegicus [7]): Non-Toxic
4 | O=C1S/C(=C\c2ccc3c(cnn3Cc3ccc(Cl)cc3C(F)(F)F)c2)C(=O)N1[C@@H]1CCNC[C@H]1F (relative stereo) | 0.034 | – | – | IC50 [4]: 21 µM
5 | O=C1S/C(=C\c2ccc3c(cnn3Cc3ccc(Cl)cc3C(F)(F)F)c2)C(=O)N1Cc1nnn[nH]1 | 0.013 | -44 | -51 | –
6 | CN1CCC(N2C(=O)S/C(=C\c3ccc4c(cnn4Cc4ccc(Cl)cc4C(F)(F)F)c3)C2=O)CC1 | 0.019 | – | – | inhibition (INH) (Cytochrome P450 3A4): Active
7 | CC(=O)NS(=O)(=O)CN1C(=O)S/C(=C\c2ccc3c(cnn3Cc3ccc(Cl)cc3C(F)(F)F)c2)C1=O | 0.008 | -58 | -37 | –
8 | CN1CC[C@H](N2C(=O)S/C(=C\c3ccc4c(cnn4Cc4ccc(Cl)cc4C(F)(F)F)c3)C2=O)[C@@H](F)C1 | 0.022 | -52 | -51 | Activity (Rattus norvegicus [5]): -27%; Activity (Rattus norvegicus [8]): -37%; Activity (Rattus norvegicus [9]): Toxic; Activity (Rattus norvegicus [10]): Toxic; Activity (Rattus norvegicus [11]): Toxic
9 | O=C1S/C(=C\c2ccc3c(cnn3Cc3ccc(Cl)cc3C(F)(F)F)c2)C(=O)N1CCN1CCCC1 | 0.017 | -49 | -30 | inhibition (INH) [4]: Active; Cp [12]: < 100 ng/mL
10 | C[C@H](N)CN1C(=O)S/C(=C\c2ccc3c(cnn3Cc3ccc(Cl)cc3C(F)(F)F)c2)C1=O | 0.024 | -60 | -55 | Cp [12]: < 100 ng/mL
11 | COc1ccc(Cn2ncc3cc(/C=C4\SC(=O)N(C5CCC(C(=O)O)CC5)C4=O)ccc32)c(C(F)(F)F)c1 (configuration not stated) | – | -11 | 32 | –
12 | Cc1nn(Cc2ccc(Cl)cc2C(F)(F)F)c2ccc(/C=C3\SC(=O)N(CC(=O)NS(=O)(=O)N4CCCC4)C3=O)cc12 | 0.054 | -10 | -23 | Drug uptake [12]: Active
13 | COc1ccc(Cn2ncc3cc(/C=C4\SC(=O)N(CCN5CCCC5)C4=O)ccc32)c(C(F)(F)F)c1 | 0.046 | – | – | –
14 | O=C1S/C(=C\c2ccc3c(cnn3Cc3ccc(Cl)cc3C(F)(F)F)c2)C(=O)N1[C@@H]1CCNC[C@H]1O (relative stereo) | 0.025 | – | – | inhibition (INH) [4]: Active
15 | O=C(O)CN1C(=O)S/C(=C\c2ccc3c(cnn3Cc3ccc(C(F)(F)F)cc3C(F)(F)F)c2)C1=O | 0.026 | – | – | –
16 | N[C@@H](CO)CN1C(=O)S/C(=C\c2ccc3c(cnn3Cc3ccc(Cl)cc3C(F)(F)F)c2)C1=O | 0.023 | -33 | -45 | inhibition (INH) [4]: Active; Cp [12]: < 100 ng/mL

Row | SMILES | IC50 [1] [µM] | Activity (Rattus norvegicus [2]) [%] | Activity (Rattus norvegicus [3]) [%] | also measured
17 | CCC(=C(c1ccc(O)cc1)c1ccc(OCCN(C)C)cc1)c1ccccc1 | – | – | – | IC50 [13]: 0.886 µM
18 | CN(C)S(=O)(=O)NC(=O)CN1C(=O)S/C(=C\c2ccc3c(cnn3Cc3ccc(Cl)cc3C(F)(F)F)c2)C1=O | 0.023 | -29 | -46 | –
19 | O=C1S/C(=C\c2ccc3c(cnn3Cc3ccc(Cl)cc3C(F)(F)F)c2)C(=O)N1CCN1CCOCC1 | 0.043 | – | – | –
20 | NS(=O)(=O)NC(=O)CN1C(=O)S/C(=C\c2ccc3c(cnn3Cc3ccc(Cl)cc3C(F)(F)F)c2)C1=O | 0.019 | -51 | -14 | –
21 | O=C1S/C(=C\c2ccc3c(cnn3Cc3ccc(C(F)(F)F)cc3C(F)(F)F)c2)C(=O)N1CCN1CCCC1 | 0.58 | – | – | –
22 | O=C1S/C(=C\c2ccc3c(cnn3Cc3ccc(Cl)cc3C(F)(F)F)c2)C(=O)N1C1CCN(CCO)CC1 | 0.015 | -77 | -40 | inhibition (INH) [4]: Active
23 | CN1CCC[C@H]1CN1C(=O)S/C(=C\c2ccc3c(cnn3Cc3ccc(Cl)cc3C(F)(F)F)c2)C1=O | 0.005 | -59 | -37 | Cp [12]: < 100 ng/mL
24 | COc1ccc(Cn2ncc3cc(/C=C4\SC(=O)N(CC(=O)O)C4=O)ccc32)c(C(F)(F)F)c1 | 0.009 | -9 | 21 | –
25 | COc1ccc(Cn2ncc3cc(/C=C4\SC(=O)N(CCN5CCOCC5)C4=O)ccc32)c(C(F)(F)F)c1 | 0.008 | -21 | -19 | –
26 | O=C(O)CN1C(=O)S/C(=C\c2ccc3c(cnn3Cc3ccc(Cl)cc3C(F)(F)F)c2)C1=O | 0.009 | -50 | -14 | –
27 | CS(=O)(=O)NC(=O)CN1C(=O)S/C(=C\c2ccc3c(cnn3Cc3ccc(Cl)cc3C(F)(F)F)c2)C1=O | 0.018 | -14 | 13 | –
28 | Cc1nn(Cc2ccc(Cl)cc2C(F)(F)F)c2ccc(/C=C3\SC(=O)N(CC(=O)O)C3=O)cc12 | 0.028 | -18 | -4 | –
29 | O=C1S/C(=C\c2ccc3c(cnn3Cc3ccc(Cl)cc3C(F)(F)F)c2)C(=O)N1C1CCNCC1 | 0.016 | – | – | inhibition (INH) (Cytochrome P450 2C19): Active; inhibition (INH) (Cytochrome P450 3A4): Active; inhibition (INH) (Cytochrome P450 2C9): Active
30 | O=C1S/C(=C\c2ccc3c(cnn3Cc3ccc(Cl)cc3C(F)(F)F)c2)C(=O)N1C[C@H]1COCCN1 | 0.015 | -52 | -61 | inhibition (INH) [4]: Active; Cp [12]: < 100 ng/mL
31 | O=C(CN1C(=O)S/C(=C\c2ccc3c(cnn3Cc3ccc(Cl)cc3C(F)(F)F)c2)C1=O)NS(=O)(=O)N1CCCC1 | 0.025 | -47 | 1 | Drug uptake [12]: Active
